Reference: patent US12576050B2, “Dosage regime” (priority 2018, dated 2026)

Legend:
[1] = tested on: Gram −ve organisms in sputum; test: CARE-CF-1 trial: sputum bacterial load; assay type: in vivo, people with CF; details: for Sputum Gram −ve organisms, Day 21 change from baseline, mean: 14 day course; for Sputum Gram −ve organisms, Day 14 LSMD (cysteamine − placebo): MMRM, ITT; for Sputum Gram −ve organisms, D 14 mean: with standard of care
[2] = tested on: people with CF experiencing an acute exacerbation; test: CARE-CF-1 trial: PROM CFRSD-CRISS score; assay type: in vivo; details: for CFRSD-CRISS score, Day 7 LSMD (cysteamine − placebo) / CFRSD-CRISS score, Day 14 LSMD (cysteamine − placebo): MMRM, ITT
[3] = tested on: blood leukocytes; test: CARE-CF-1 trial: blood leukocyte count (WCC); assay type: in vivo, people with CF
[4] = tested on: people with CF experiencing an acute exacerbation; test: CARE-CF-1 trial: PROM CFQ-R score; assay type: in vivo; details: 450 doses, day 14; greatest for 450 BID
[5] = tested on: P. aeruginosa isolated from sputum from a CF patient; test: Alginate production by sputum isolates (Alcian Blue assay); assay type: cell-based
Protocol: Isolate A produced 19.93 μg/ml (+/−1.9 SD) alginate and had mucoid phenotype. Isolate B produced 4.47 μg/ml (+/−2.39 SD) with dry colonies.
Results provided in FIG. 5 were derived from a study that conforms to the general quantitative assay described in J. Phycol. 13, 345-348 (1977) “Alcian Blue: A Quantitative Aqueous Assay for Algal Acid and Sulfated Polysaccharides”; J Ramus.

[6] = tested on: P. aeruginosa isolate from CF sputum; test: Kirby Bauer antibiotic disc sensitivity on agar containing cysteamine; assay type: cell-based
Text: Legend: […], I, R=sensitive, intermediate or resistant by interpretive criteria for antibiotic disc sensitivity testing method against P. aeruginosa. No criteria for sulphonamides against P. aeruginosa, however Bactrim/co-trimoxazole sometimes used in CF therefore included here with interpretive criteria for Stenotrophomonas. *=p<0.05 two-way ANOVA Sidak's multiple comparison test.
(§1) As a result, the patient was taken off regimen of ceftolozane+tazobactam, Colomycin and Pulmozyme and put onto 14-day course of cysteamine 450 mg BID (bi-daily) with Tobramycin and Colomycin. Patient was discharged from hospital 3-days later.

[7] = tested on: CF patient; test: Single patient treated with cysteamine 450 mg bi-daily plus antibiotics; assay type: in vivo; details: cysteamine 450 mg BID with Tobramycin and Colomycin, one patient
Protocol: as §1, with “Patient trialled with combination treatment of 450 mg bi-daily in combination with antibiotics. […] As” for “As”

[8] = tested on: people with CF experiencing an acute exacerbation; details: adjunct to treatment of exacerbations, 14 days

SMILES: NCCS [Cysteamine, cysteamine]
- Sputum Gram −ve organisms, Day 21 change from baseline, mean ([1]; 150 mg TID): −0.26 log10 CFU/ml
- Sputum Gram −ve organisms, Day 14 LSMD (cysteamine − placebo) ([1]; 150 mg TID, p 0.9753): 0.03 log10 CFU/ml
- Sputum Gram −ve organisms, Day 21 LSMD (cysteamine − placebo) ([1]; 150 mg TID, p 0.9511): 0.05 log10 CFU/ml
- Sputum Gram −ve organisms, Day 14 change from baseline, mean ([1]; 150 mg tid): −1.24 log10 CFU/ml
- Sputum Gram −ve organisms, D 14 mean ([1]; 150 mg tid for 14 days): 5.08 log10 CFU/ml
- Sputum Gram −ve organisms, D 14 Δ −placebo mean ([1]; 150 mg tid, p 0.97): 0.03 log10 CFU/ml
- Sputum Gram −ve organisms, Day 21 change from baseline, mean ([1]; 300 mg TID): −0.87 log10 CFU/ml
- Sputum Gram −ve organisms, Day 14 LSMD (cysteamine − placebo) ([1]; 300 mg TID, p 0.3683): 0.82 log10 CFU/ml
- Sputum Gram −ve organisms, Day 21 LSMD (cysteamine − placebo) ([1]; 300 mg TID, p 0.7802): −0.24 log10 CFU/ml
- Sputum Gram −ve organisms, Day 14 change from baseline, mean ([1]; 300 mg tid): −0.98 log10 CFU/ml
- Sputum Gram −ve organisms, D 14 mean ([1]; 300 mg tid for 14 days): 6.14 log10 CFU/ml
- Sputum Gram −ve organisms, D 14 Δ −placebo mean ([1]; 300 mg tid, p 0.36): 0.87 log10 CFU/ml
- Sputum Gram −ve organisms, Day 21 change from baseline, mean ([1]; 450 mg BID): −1.04 log10 CFU/ml
- Sputum Gram −ve organisms, Day 14 LSMD (cysteamine − placebo) ([1]; 450 mg BID, p 0.4165): 0.72 log10 CFU/ml
- Sputum Gram −ve organisms, Day 21 LSMD (cysteamine − placebo) ([1]; 450 mg BID, p 0.6117): −0.41 log10 CFU/ml
- Sputum Gram −ve organisms, Day 21 change from baseline, mean ([1]; 450 mg QD): −1.22 log10 CFU/ml
- Sputum Gram −ve organisms, Day 14 LSMD (cysteamine − placebo) ([1]; 450 mg QD, p 0.4445): 0.72 log10 CFU/ml
- Sputum Gram −ve organisms, Day 21 LSMD (cysteamine − placebo) ([1]; 450 mg QD, p 0.0799): −1.56 log10 CFU/ml
- Sputum Gram −ve organisms, Day 14 LSMD (cysteamine QD/BID − TID) ([1]; 450 mg TDD: 450 mg QD − 150 mg TID): 0.69 log10 CFU/ml
- Sputum Gram −ve organisms, Day 21 change from baseline, mean ([1]; 450 mg TID): 0.93 log10 CFU/ml
- Sputum Gram −ve organisms, Day 14 LSMD (cysteamine − placebo) ([1]; 450 mg TID, p 0.0602): 1.57 log10 CFU/ml
- Sputum Gram −ve organisms, Day 21 LSMD (cysteamine − placebo) ([1]; 450 mg TID, p 0.2130): 0.99 log10 CFU/ml
- Sputum Gram −ve organisms, Day 14 change from baseline, mean ([1]; 450 mg bid): −1.32 log10 CFU/ml
- Sputum Gram −ve organisms, D 14 mean ([1]; 450 mg bid for 14 days): 6.25 log10 CFU/ml
- Sputum Gram −ve organisms, D 14 Δ −placebo mean ([1]; 450 mg bid, p 0.61): 0.46 log10 CFU/ml
- Sputum Gram −ve organisms, Day 14 change from baseline, mean ([1]; 450 mg qd): 0.12 log10 CFU/ml
- Sputum Gram −ve organisms, D 14 mean ([1]; 450 mg qd for 14 days): 4.49 log10 CFU/ml
- Sputum Gram −ve organisms, D 14 Δ −placebo mean ([1]; 450 mg qd, p 0.36): 0.90 log10 CFU/ml
- Sputum Gram −ve organisms, Day 14 change from baseline, mean ([1]; 450 mg tid): 0.33 log10 CFU/ml
- Sputum Gram −ve organisms, D 14 mean ([1]; 450 mg tid for 14 days): 6.27 log10 CFU/ml
- Sputum Gram −ve organisms, D 14 Δ −placebo mean ([1]; 450 mg tid, p 0.059): 1.66 log10 CFU/ml
- Sputum Gram −ve organisms, Day 14 LSMD (cysteamine QD/BID − TID) ([1]; 900 mg TDD: 450 mg BID − 300 mg TID): −0.11 log10 CFU/ml
- CFRSD-CRISS score, Day 7 change from baseline, mean ([2]; 150 mg TID): −11.9
- CFRSD-CRISS score, Day 7 LSMD (cysteamine − placebo) ([2]; 150 mg TID, p 0.1991): 4.25
- CFRSD-CRISS score, Day 14 LSMD (cysteamine − placebo) ([2]; 150 mg TID, p 0.9098): 0.57
- CFRSD-CRISS score, D 14 mean ([2]; 150 mg tid): 32.4
- CFRSD-CRISS score, Day 14 change from baseline, mean ([2]; 150 mg tid): −15.5
- CFRSD-CRISS score, D 14 Δ −placebo mean ([2]; 150 mg tid, p 0.87): 0.8
- CFRSD-CRISS score, Day 7 change from baseline, mean ([2]; 300 mg TID): −10.5
- CFRSD-CRISS score, Day 7 LSMD (cysteamine − placebo) ([2]; 300 mg TID, p 0.0474): 6.48
- CFRSD-CRISS score, Day 14 LSMD (cysteamine − placebo) ([2]; 300 mg TID, p 0.6439): 2.32
- CFRSD-CRISS score, D 14 mean ([2]; 300 mg tid): 34.2
- CFRSD-CRISS score, Day 14 change from baseline, mean ([2]; 300 mg tid): −14.8
- CFRSD-CRISS score, D 14 Δ −placebo mean ([2]; 300 mg tid, p 0.70): 1.9
- CFRSD-CRISS score, Day 7 change from baseline, mean ([2]; 450 mg BID): −19.1
- CFRSD-CRISS score, Day 14 LSMD (cysteamine − placebo) ([2]; 450 mg BID, p 0.0496): −9.85
- CFRSD-CRISS score, Day 7 LSMD (cysteamine − placebo) ([2]; 450 mg BID, p 0.8081): −0.78
- CFRSD-CRISS score, Day 7 change from baseline, mean ([2]; 450 mg QD): −18.1
- CFRSD-CRISS score, Day 14 LSMD (cysteamine − placebo) ([2]; 450 mg QD, p 0.1814): −7.36
- CFRSD-CRISS score, Day 7 LSMD (cysteamine − placebo) ([2]; 450 mg QD, p 0.7569): −1.10
- CFRSD-CRISS score, Day 14 LSMD (cysteamine QD/BID − TID) ([2]; 450 mg TDD: 450 mg QD − 150 mg TID, p 0.1725): −7.94
- CFRSD-CRISS score, Day 7 change from baseline, mean ([2]; 450 mg TID): −17.8
- CFRSD-CRISS score, Day 14 LSMD (cysteamine − placebo) ([2]; 450 mg TID, p 0.2097): −6.27
- CFRSD-CRISS score, Day 7 LSMD (cysteamine − placebo) ([2]; 450 mg TID, p 0.7324): 1.11
- Improvements in CFRSD-CRISS domains ([2]; 450 mg bi-daily compared with the other doses (FIG. 6)): best improvements
- CFRSD-CRISS score, D 14 mean ([2]; 450 mg bid): 25.4
- CFRSD-CRISS score, Day 14 change from baseline, mean ([2]; 450 mg bid): −28.1
- CFRSD-CRISS score, D 14 Δ −placebo mean ([2]; 450 mg bid, p 0.035): −10.6
- CFRSD-CRISS score, D 14 mean ([2]; 450 mg qd): 26.1
- CFRSD-CRISS score, Day 14 change from baseline, mean ([2]; 450 mg qd): −24.3
- CFRSD-CRISS score, D 14 Δ −placebo mean ([2]; 450 mg qd, p 0.090): −9.0
- CFRSD-CRISS score, D 14 mean ([2]; 450 mg tid): 31.6
- CFRSD-CRISS score, Day 14 change from baseline, mean ([2]; 450 mg tid): −23.9
- CFRSD-CRISS score, D 14 Δ −placebo mean ([2]; 450 mg tid, p 0.34): −4.8
- CFRSD-CRISS score, Day 14 LSMD (cysteamine QD/BID − TID) ([2]; 900 mg TDD: 450 mg BID − 300 mg TID, p 0.0222): −12.17
- CRISS score at day 14 compared with standard of care plus placebo ([2]; 450 BID dose): significant improvement over and above placebo
- Potentiation of other antibiotics (CRISS, post-hoc) ([2]; 450 BID versus 900 mg as 3 times 300 mg (FIG. 9)): potentiates other antibiotics more than the 300 mg three times a day dosage regime
- CRISS versus placebo group across all concomitant antibiotics examined ([2]; 450 dose regimen, including 450 BID, post-hoc): non-significant improvements
- CRISS versus placebo, patients not receiving azithromycin ([2]; across all cysteamine treatment regimens, post-hoc): significantly better than placebo
- CRISS score at day 14 compared with placebo ([2]; other 450 doses (qd, tid)): non-significant reductions
- Blood Leukocyte Count, D 14 mean ([3]; 150 mg tid): 9.71e+09 L⁻¹
- Blood Leukocyte Count, D 14 Δbaseline mean ([3]; 150 mg tid): -2.64e+09 L⁻¹
- Blood Leukocyte Count, D 14 Δ −placebo mean ([3]; 150 mg tid, p 1.00): 0 L⁻¹
- Blood Leukocyte Count, D 14 mean ([3]; 300 mg tid): 1.055e+10 L⁻¹
- Blood Leukocyte Count, D 14 Δbaseline mean ([3]; 300 mg tid): -1.9e+08 L⁻¹
- Blood Leukocyte Count, D 14 Δ −placebo mean ([3]; 300 mg tid, p 0.84): -2.4e+08 L⁻¹
- Blood Leukocyte Count, D 14 mean ([3]; 450 mg bid): 7.45e+09 L⁻¹
- Blood Leukocyte Count, D 14 Δbaseline mean ([3]; 450 mg bid): -3.41e+09 L⁻¹
- Blood Leukocyte Count, D 14 Δ −placebo mean ([3]; 450 mg bid, p 0.033): -2.43e+09 L⁻¹
- Blood Leukocyte Count, D 14 mean ([3]; 450 mg qd): 8.52e+09 L⁻¹
- Blood Leukocyte Count, D 14 Δbaseline mean ([3]; 450 mg qd): -2.22e+09 L⁻¹
- Blood Leukocyte Count, D 14 Δ −placebo mean ([3]; 450 mg qd, p 0.22): -1.49e+09 L⁻¹
- Blood Leukocyte Count, D 14 mean ([3]; 450 mg tid): 9.79e+09 L⁻¹
- Blood Leukocyte Count, D 14 Δbaseline mean ([3]; 450 mg tid): -4.06e+09 L⁻¹
- Blood Leukocyte Count, D 14 Δ −placebo mean ([3]; 450 mg tid, p 0.33): -1.11e+09 L⁻¹
- CFQR PROM score [4]: non-significant improvements
- Production of alginate/extracellular polysaccharide in mucoid strains ([5]; exposure to cysteamine): inhibited
- Alginate production ([5]; isolate B, day 14 of 450 mg BID cysteamine, 120 h growth in MHB at 37° C., day 0 isolate A 19.93 μg/ml, mucoid): 4.47 µg/mL
- Colony phenotype of isolate ([5]; isolate B, day 14 of 450 mg BID cysteamine, day 0 isolate mucoid): dry colonies
- Zone of clearance and sensitivity to sulphonamides ([6]; Müller Hinton agar containing cysteamine compared with agar alone): significant increase
- Sensitivity to various antibiotics in combination with cysteamine ([6]; in vitro, patient isolate (FIG. 8)): increased sensitivity
- Time to discharge from hospital [7]: 3 days
- Safety and tolerability [8]: safe and reasonably well tolerated
